In US11591326B2, “Inhibitors of protein arginine methyltransferase 5 (PRMT5), pharmaceutical products thereof, and methods thereof” (PHARMABLOCK SCIENCES (NANJING), INC., priority 2018, dated 2023):
Like-named read-outs stand apart in the source and are kept apart here.

Tests used:
[1] = target: Human recombinant PRMT5 in complex with human recombinant MEP50 (Homo sapiens (Human), UniProt O14744); experiment: PRMT5/MEP50 AlphaLISA enzyme inhibitory assay; type: biochemical; details: PRMT5/MEP50 25 nM, SAM 10 μM, Biotin-H4 peptide 30 nM
Chain of Human recombinant PRMT5 in complex with human recombinant MEP50 (O14744 whole entry): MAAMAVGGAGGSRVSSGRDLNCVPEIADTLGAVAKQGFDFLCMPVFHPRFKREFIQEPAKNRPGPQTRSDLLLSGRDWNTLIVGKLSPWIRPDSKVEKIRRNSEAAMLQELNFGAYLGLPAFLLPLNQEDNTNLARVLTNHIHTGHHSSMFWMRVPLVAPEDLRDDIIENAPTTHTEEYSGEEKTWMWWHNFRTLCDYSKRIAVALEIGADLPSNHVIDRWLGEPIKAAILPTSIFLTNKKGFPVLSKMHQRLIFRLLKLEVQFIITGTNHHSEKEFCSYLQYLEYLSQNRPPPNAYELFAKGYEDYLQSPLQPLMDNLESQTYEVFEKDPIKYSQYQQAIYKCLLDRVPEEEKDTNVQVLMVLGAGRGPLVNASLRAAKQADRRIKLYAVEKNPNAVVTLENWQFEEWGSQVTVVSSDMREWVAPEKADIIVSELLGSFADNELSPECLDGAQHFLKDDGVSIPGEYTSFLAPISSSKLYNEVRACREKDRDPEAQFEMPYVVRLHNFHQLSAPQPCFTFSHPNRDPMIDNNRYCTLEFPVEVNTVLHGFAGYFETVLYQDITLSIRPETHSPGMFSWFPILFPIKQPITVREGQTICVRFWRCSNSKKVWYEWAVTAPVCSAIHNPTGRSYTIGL
Chain of Human recombinant PRMT5 in complex with human recombinant MEP50 (Q9BQA1 whole entry partner): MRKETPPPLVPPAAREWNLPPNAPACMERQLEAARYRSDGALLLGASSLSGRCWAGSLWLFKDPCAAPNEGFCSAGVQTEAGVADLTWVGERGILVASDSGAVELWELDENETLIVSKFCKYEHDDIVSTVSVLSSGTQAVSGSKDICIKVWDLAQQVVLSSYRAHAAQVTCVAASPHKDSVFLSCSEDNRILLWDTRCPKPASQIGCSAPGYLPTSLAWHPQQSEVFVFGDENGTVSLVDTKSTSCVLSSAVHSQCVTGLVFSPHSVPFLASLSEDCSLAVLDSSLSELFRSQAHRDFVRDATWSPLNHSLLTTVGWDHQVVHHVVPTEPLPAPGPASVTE
Outline: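 Insect-cell-expressed PRMT5/MEP50 (25 nM) preincubated with SAM (10 μM), then 15 min with compound in pH 8.5 Tris buffer, 1% DMSO. Biotin-H4(1–21) peptide (30 nM) reaction ran 120 min at room temperature. H4R3 methylation detected by AlphaLISA; IC50 from four-parameter sigmoidal fit.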

Glioblastoma U-251 cell = experiment: Cell proliferation inhibition, U-251 (CellTiter-Glo); type: cell-based; details: Homo sapiens, U-251, incubated for 12 days (read after 8 or 12 days)
Excerpt: Materials and Cell Lines: Z-138, U251, and MIA PaCa2 cells were purchased from ATCC (American Type Culture Collection, Manassas, Va.) and Chinese Academy of Science (Shanghai, China). Iscove's Modified Dulbecco's Medium (IMDM), Dulbecco's Modified Eagle Medium (DMEM), penicillin-streptomycin, heat inactivated fetal bovine serum (FBS), and horse serum was purchased from ThermoFisher, Waltham, Mass., USA. Corning 96- and 384-well cell culture plates were purchased from ThermoFisher, Waltham, Mass., USA. Cell-Titer Glo® was purchased from Promega Corporation, Madison, Wis., USA.
In order to evaluate the inhibitory ability of compounds synthesized on the proliferation of the Glioblastoma U-251 cell, exponentially growing cells were seeded in the cell culture media of DMEM with 10% FBS and 1% penicillin-streptomycin at a concentration of 10000 cells/ml in a 384-well plate with 20 ul per well and incubated overnight at 37° C., 5% CO2 incubator. Compounds were prepared as 10-point, 3-fold serial dilutions in DMSO, beginning at 6 mM. 1 μl of DMSO solutions from the compound stock plates were added to 99 ul of cell culture media (final top concentration of compound in the assay was 30 uM and the final concentration of DMSO was 0.5%). 20 μL of compound solutions in media were added to each well of U-251 cell plates. After adding compound solutions, assay plates were incubated for 12 days at 37° C., 5% CO2. During this incubation period, cell culture media with freshly dissolved testing compounds was changed every 4 days. After removing old media from cell plates, 40 ul of media with testing compounds dissolved, which were prepared by adding 1 ul of compound DMSO serial solutions to 199 ul of cell media, were added to the assay plates with the same layout as they were initially prepared. After 8 or 12 days, cell viability was measured using the CellTiter-Glo assay kit from Promega (Madison, Wis., USA) by quantitating the ATP present in the cell cultures. 20 μL of CellTiter-Glo reagent was added to each well of the cell plates. Luminescence was read after 10 minute of incubation with the Envision multiple plate reader from PerkinElmer (Waltham, Mass., USA). The concentrations of compounds inhibiting cell viability by 50% (IC50 values) were determined using a sigmoidal dose-response model (variable slopes, four parameters) in Prism 7 (La Jolla, Calif., USA).

SNU475 = experiment: Liver cancer panel proliferation inhibition, SNU475; type: cell-based; details: Homo sapiens
Description: Inhibitory ability of compounds synthesized on the proliferation of three panels of cancer cell lines, including 5 breast cancer, 6 liver cancer, and 3 lung cancer cell lines were evaluated. Exponentially growing cells were seeded in the media of choice at various cell densities in 384-well plates with 20 ul per well and incubated overnight at 37° C., 5% CO2 incubator. Compounds were prepared as 10-point, 3-fold serial dilutions in DMSO, beginning at 6 mM. 1 μl of DMSO solutions from the compound stock plates were added to 99 ul of cell media (final top concentration of compound in the assay was 30 uM and the final concentration of DMSO was 0.5%). 20 μL of compound solutions in media were added to each well of plates with cells seeded. After adding compound solutions, assay plates were incubated for 8 and 12 days, respectively, at 37° C., 5% CO2. During this incubation period, cell media was changed every 4 days. After removing old media from cell plates, 40 ul of media with testing compounds dissolved, which were prepared by adding 1 ul of compound DMSO serial solutions to 199 ul of cell media, were added to the assay plates with the same layout as they were initially prepared. After 8 or 12 days, cell viability was measured using the CellTiter-Glo assay kit from Promega (Madison, Wis., USA) by quantitating the ATP present in the cell cultures. 20 μL of CellTiter-Glo reagent was added to each well of the cell plates. Luminescence was read after 10 minute of incubation with the Envision multiple plate reader from PerkinElmer (Waltham, Mass., USA). The concentrations of compounds inhibiting cell viability by 50% (IC50 values) were determined using a sigmoidal dose-response model (variable slopes, four parameters) in Prism 7 (La Jolla, Calif., USA).

[2] = SNU-475, 192 h, SNU475, 8 days, read-out: IC50 (μM) 8 days
[3] = SNU-475, 288 h, SNU475, 12 days, read-out: IC50 (μM) 12 days

IC50 [1]	IC50 (Glioblastoma U-251 cell)	IC50 (SNU475; [2])	IC50 (SNU475; [3])	Compound
13 nM	0.097 µM	0.21 µM	0.32 µM	CC(=O)N1CCC(Nc2ccc3c(c2)C(=O)N(C[C@H](O)CN2CCc4ccccc4C2)CC3)CC1 [Compound 24a, (R)-7-((1-acetylpiperidin-4-yl)amino)-2-(3-(3,4-dihydroisoquinolin-2(1H)-yl)-2-hydroxypropyl)-3,4-dihydroisoquinolin-1(2H)-one]
80 nM	0.293 µM	0.29 µM	0.35 µM	CC(=O)N1CCC(Nc2ccc3c(c2)C(=O)N(C[C@H](O)CN2CCc4ccccc4C2)CCO3)CC1 [Compound 52a, (R)-7-((1-acetylpiperidin-4-yl)amino)-4-(3-(3,4-dihydroisoquinolin-2(1H)-yl)-2-hydroxypropyl)-3,4-dihydrobenzo[f][1,4]oxazepin-5(2H)-one]
	0.17 µM	0.66 µM	0.86 µM	CC(=O)N1CCC(Nc2cc(C(=O)NC[C@H](O)CN3CCc4ccccc4C3)ncn2)CC1 [Compound C3, reference compound]
